# Results from patent US8674095B2, “Compounds for treating neuropsychiatric conditions” (Afraxis Holdings, Inc., priority 2008, dated 2014).
# Assays:
# Assay type in all cases: biochemical
# [1] = test system: PAK1, PAK2, PAK3, PAK-4; experiment: PAK isoform inhibition profile of example compounds; conditions: classification of example compounds in the description; underlying IC50 data in Table 8
# From the text: In some embodiments, the PAK inhibitor is a Group I PAK inhibitor that inhibits, for example, one or more Group I PAK polypeptides, for example, PAK1, PAK2, and/or PAK3. […] In some embodiments, the PAK inhibitor is a PAK2 inhibitor. In some embodiments, the PAK inhibitor is a PAK3 inhibitor. In some embodiments, the PAK inhibitor is a mixed PAK1/PAK3 inhibitor. […] In some embodiments, the PAK inhibitor is a Group II PAK inhibitor that inhibits one or more Group II PAK polypeptides, for example PAK-4, PAK5, and/or PAK6. In some embodiments, the PAK inhibitor is a PAK4 inhibitor. In some embodiments, the PAK inhibitor is a PAK5 inhibitor. In some embodiments, the PAK inhibitor is a PAK6 inhibitor.
# (§1) A fluorescence-based assay format is used to determine IC50 values of test compounds in vitro. Purified PAK kinase is incubated with ATP, and a test compound at various concentrations and a substrate peptide containing two fluorophores. In a second step, the reaction mix is incubated with a site-specific protease that cleaves non-phosphorylated but not phosphorylated substrate peptide, disrupting the FRET signal generated by the two fluorophores in the cleaved peptide (Z′Lyte™ Kinase assay platform; Life Technologies).
# (§2) Reagents: 50 mM HEPES, pH 7.5; 0.01% BRIJ-35; 10 mM MgCl2; 1 mM EGTA, 2 uM substrate peptide Ser/Thr20 (proprietary Life Technologies Sequence), PAK enzyme [2.42-30.8 ng for PAK1, 0.29-6 ng for PAK2, 1.5-20 ng for PAK3 and 0.1-0.86 ng for PAK4; actual enzyme amounts depend on lot activity of the enzyme preparation]
# (§3) Test compounds are dissolved in DMSO at various concentrations; the final DMSO concentration in the assay reaction is 1%.
# (§4) ATP concentration at Km apparent is used in the assay [50 μM ATP for PAK1 assay, 75 μM ATP for PAK2 assay, 100 μM ATP for PAK3 assay, 5 μM ATP for PAK-4 assay] in a total assay volume of […] Assay reactions are incubated at room temperature for 1 hr. Following the kinase reaction, 5 μl of 1:256 dilution of development solution A (Life Technologies) is added and the reaction mix is incubated for an additional 1 hr at room temperature.
# (§5) Plates are analyzed in a standard fluorescence plate reader (Tecan or equivalent) using an excitation wavelength of 400 nm and emission wavelengths of 445 nm and 520 nm. Inhibition of kinase reaction is determined by emission ratio=emission@445 nm/emission@520 nm
# [2] = molecular target: PAK1 (Homo sapiens, UniProt Q13153); experiment: Z'Lyte fluorescence-based (FRET) kinase assay, PAK1; conditions: 50 μM ATP (Km apparent), 1 hr room temperature, 1% DMSO
# Chain of PAK1 (Q13153 whole entry): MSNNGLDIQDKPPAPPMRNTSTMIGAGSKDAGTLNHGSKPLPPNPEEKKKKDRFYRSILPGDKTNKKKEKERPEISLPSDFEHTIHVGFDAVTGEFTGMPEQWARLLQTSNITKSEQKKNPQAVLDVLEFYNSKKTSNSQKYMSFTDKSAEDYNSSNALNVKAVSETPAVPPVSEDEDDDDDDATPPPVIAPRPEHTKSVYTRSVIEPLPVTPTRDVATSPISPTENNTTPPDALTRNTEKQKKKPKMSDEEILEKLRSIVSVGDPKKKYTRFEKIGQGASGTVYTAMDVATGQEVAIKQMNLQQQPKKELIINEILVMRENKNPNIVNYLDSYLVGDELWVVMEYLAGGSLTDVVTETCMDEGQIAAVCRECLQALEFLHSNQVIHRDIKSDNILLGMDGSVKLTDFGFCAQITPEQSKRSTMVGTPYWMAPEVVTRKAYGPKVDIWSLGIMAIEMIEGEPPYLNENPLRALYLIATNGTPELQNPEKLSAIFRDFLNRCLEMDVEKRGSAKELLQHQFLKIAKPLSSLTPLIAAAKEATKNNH
# Method: as §1, §2, §3, §4, §5
# [3] = molecular target: PAK2 (Homo sapiens, UniProt Q13177); experiment: Z'Lyte fluorescence-based (FRET) kinase assay, PAK2; conditions: 75 μM ATP (Km apparent), 1 hr room temperature, 1% DMSO
# Chain of PAK2 (Q13177 whole entry): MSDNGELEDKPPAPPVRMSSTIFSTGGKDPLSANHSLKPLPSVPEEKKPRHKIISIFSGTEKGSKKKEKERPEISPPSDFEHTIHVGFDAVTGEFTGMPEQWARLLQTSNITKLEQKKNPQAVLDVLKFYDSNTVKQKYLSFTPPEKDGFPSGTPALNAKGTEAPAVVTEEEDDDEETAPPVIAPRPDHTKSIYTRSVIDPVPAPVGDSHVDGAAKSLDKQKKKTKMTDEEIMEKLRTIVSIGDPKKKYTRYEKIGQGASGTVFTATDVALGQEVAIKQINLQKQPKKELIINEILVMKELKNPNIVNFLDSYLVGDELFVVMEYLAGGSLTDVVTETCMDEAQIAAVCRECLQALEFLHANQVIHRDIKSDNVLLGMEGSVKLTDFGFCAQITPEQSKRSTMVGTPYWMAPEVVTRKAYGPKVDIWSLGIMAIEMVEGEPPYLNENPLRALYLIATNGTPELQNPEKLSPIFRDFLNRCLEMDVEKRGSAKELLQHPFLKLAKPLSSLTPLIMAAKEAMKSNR
# Method: as §1, §2, §3, §4, §5
# [4] = molecular target: PAK3 (Homo sapiens, UniProt O75914); experiment: Z'Lyte fluorescence-based (FRET) kinase assay, PAK3; conditions: 100 μM ATP (Km apparent), 1 hr room temperature, 1% DMSO
# Chain of PAK3 (O75914 whole entry): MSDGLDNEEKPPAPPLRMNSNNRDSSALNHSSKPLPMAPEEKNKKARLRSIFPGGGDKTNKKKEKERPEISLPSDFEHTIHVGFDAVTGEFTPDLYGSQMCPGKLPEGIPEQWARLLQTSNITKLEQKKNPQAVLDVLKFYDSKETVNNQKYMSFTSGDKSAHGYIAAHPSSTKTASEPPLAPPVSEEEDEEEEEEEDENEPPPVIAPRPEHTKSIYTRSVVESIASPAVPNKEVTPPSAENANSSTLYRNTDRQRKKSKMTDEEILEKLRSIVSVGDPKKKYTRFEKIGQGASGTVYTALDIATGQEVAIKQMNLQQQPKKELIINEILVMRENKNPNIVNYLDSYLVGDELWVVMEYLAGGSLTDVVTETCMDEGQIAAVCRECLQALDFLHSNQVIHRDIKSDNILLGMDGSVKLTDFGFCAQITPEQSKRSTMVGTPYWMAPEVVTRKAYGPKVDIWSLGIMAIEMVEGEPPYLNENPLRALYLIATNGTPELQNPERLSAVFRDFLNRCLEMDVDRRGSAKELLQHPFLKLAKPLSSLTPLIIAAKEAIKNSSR
# Method: as §1, §2, §3, §4, §5
# [5] = molecular target: PAK4 (Homo sapiens, UniProt O96013); experiment: Z'Lyte fluorescence-based (FRET) kinase assay, PAK4; conditions: 5 μM ATP (Km apparent), 1 hr room temperature, 1% DMSO
# Chain of PAK4 (O96013 whole entry): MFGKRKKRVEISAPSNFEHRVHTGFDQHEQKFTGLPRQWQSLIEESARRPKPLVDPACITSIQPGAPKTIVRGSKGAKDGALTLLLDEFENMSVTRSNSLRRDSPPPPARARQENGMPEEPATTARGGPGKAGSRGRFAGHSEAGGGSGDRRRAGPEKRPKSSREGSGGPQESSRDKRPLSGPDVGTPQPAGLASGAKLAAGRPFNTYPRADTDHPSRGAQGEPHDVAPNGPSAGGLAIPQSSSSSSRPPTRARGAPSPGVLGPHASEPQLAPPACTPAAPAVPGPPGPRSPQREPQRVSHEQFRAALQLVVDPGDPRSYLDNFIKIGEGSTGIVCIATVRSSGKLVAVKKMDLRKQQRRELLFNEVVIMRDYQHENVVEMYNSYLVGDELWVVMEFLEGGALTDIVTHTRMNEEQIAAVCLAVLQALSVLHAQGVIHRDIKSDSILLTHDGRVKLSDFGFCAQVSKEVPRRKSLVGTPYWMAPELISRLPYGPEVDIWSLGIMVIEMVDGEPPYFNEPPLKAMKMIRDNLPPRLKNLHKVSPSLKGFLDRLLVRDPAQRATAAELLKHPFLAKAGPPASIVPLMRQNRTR
# Method: as §1, §2, §3, §4, §5
SMILES,PAK inhibitor type (isoform profile) [1],IC50 [2],IC50 [3],IC50 [4],IC50 [5]
CN1CCN(c2ccc(Nc3ncc4ccc(=O)n(C5CCC(C)(C)c6ccccc65)c4n3)cc2)CC1 (centres unmarked) [Compound 21],mixed PAK1/PAK2 inhibitor,,,,
CN1CCN(c2ccc(Nc3ncc4ccc(=O)n(Cc5ccccc5OC(F)F)c4n3)cc2)CC1 [Compound 46],mixed PAK1/PAK2/PAK3/PAK-4 inhibitor,,,,
CN1CCN(c2ccc(Nc3ncc4ccc(=O)n(C5Cc6ccccc6C5)c4n3)cc2)CC1 [Compound 18],mixed PAK1/PAK-4 inhibitor,,,,
CN1CCN(c2ccc(Nc3ncc4ccc(=O)n(Cc5ccccc5-c5cc(C(F)(F)F)nn5C)c4n3)cc2)CC1 [Compound 76],,1 to 10 µM,1 to 10 µM,1 to 10 µM,> 10 µM
CN1CCCC(Nc2ccc(Nc3ncc4ccc(=O)n(Cc5ccccc5C(F)(F)F)c4n3)cc2)C1 (centres unmarked) [Compound 63],mixed PAK1/PAK2/PAK3/PAK-4 inhibitor,,,,
O=c1ccc2cnc(Nc3ccc(N4CCNCC4)c(F)c3)nc2n1C1Cc2ccccc2C1 [Compound 22],mixed PAK1/PAK2/PAK-4 inhibitor,,,,
CN1CCN(c2ccc(Nc3ncc4ccc(=O)n(Cc5ccccc5-n5cccn5)c4n3)cc2)CC1 [Compound 55],PAK1 inhibitor,,,,
CN1CCN(c2ccc(N(C)c3nccc(-c4ccc(NCCN)nc4)n3)cc2)CC1 [Compound 114],,> 10 µM,> 10 µM,,> 10 µM
COc1ccccc1Cn1c(=O)ccc2cnc(Nc3ccc(N4CCN(C)CC4)cc3)nc21 [Compound 36],PAK1 inhibitor,,,,
CCOc1ccccc1Cn1c(=O)ccc2cnc(Nc3ccc(N4CCN(C)CC4)cc3)nc21 [Compound 64],"inhibits all three Group I PAK isoforms (PAK1, 2 and PAK3) with equal or similar potency",,,,
O=c1ccc2cnc(Nc3ccc(N4CCNCC4)c(F)c3)nc2n1Cc1c(Cl)cccc1C1CC1 [Compound 86],"inhibits all three Group I PAK isoforms (PAK1, 2 and PAK3) with equal or similar potency",,< 1 µM,,
CN1CCN(c2ccc(Nc3ncc4ccc(=O)n(C5CCc6ccccc6C5)c4n3)cc2)CC1 (centres unmarked) [Compound 19],mixed PAK1/PAK2/PAK3/PAK-4 inhibitor,,,,
CN(C)CCOc1ccc(Nc2nccc(-c3ccc(NCCN)nc3)n2)cc1 [Compound 96],,1 to 10 µM,1 to 10 µM,,1 to 10 µM
CN1CCN(c2ccc(Nc3ncc4ccc(=O)n(Cc5ccccc5OC(F)(F)F)c4n3)cc2)CC1 [Compound 43],mixed PAK1/PAK2 inhibitor,,,,
CN(C)CCNc1ccc(-c2ccnc(Nc3ccc(N4CCN(C)CC4)cc3)n2)cn1 [Compound 101],,1 to 10 µM,1 to 10 µM,,1 to 10 µM
"COc1cccc2c1C(n1c(=O)ccc3cnc(Nc4ccc(N5CCN(C)CC5)cc4)nc31)CC2 (centres unmarked) [Compound 1, 8-(7-methoxy-2,3-dihydro-1H-inden-1-yl)-2-(4-(4-methylpiperazin-1-yl)phenylamino)pyrido[2,3-d]pyrimidin-7(8H)-one]",,1 to 10 µM,> 10 µM,> 10 µM,1 to 10 µM
CC(C)CNc1ccc(-c2ccnc(Nc3ccc(N4CCN(C)CC4)cc3)n2)cn1 [Compound 104],,1 to 10 µM,1 to 10 µM,> 10 µM,< 1 µM
CN1CCN(c2ccc(Nc3nccc(-c4ccc(NCCN5CCCCC5)nc4)n3)cc2)CC1 [Compound 100],,1 to 10 µM,1 to 10 µM,> 10 µM,< 1 µM
CCNc1ccc(-c2ccnc(Nc3ccc(N4CCN(C)CC4)cc3)n2)cn1 [Compound 109],,1 to 10 µM,> 10 µM,> 10 µM,< 1 µM
O=c1c(-c2ccccc2)cc2cnc(Nc3ccc(N4CCNCC4)cc3)nc2n1Cc1ccccc1C(F)(F)F [Compound 120],"inhibits all three Group I PAK isoforms (PAK1, 2 and PAK3) with equal or similar potency",,< 1 µM,,
CN(c1ccc(Nc2ncc3ccc(=O)n(Cc4ccccc4C(F)(F)F)c3n2)cc1)C1CCCNC1 (centres unmarked) [Compound 14],mixed PAK1/PAK2/PAK3/PAK-4 inhibitor,,,,
